From PMC11930985 (Nature Communications, 2025)
Read-outs that look alike come from different tables or passages of the source.

Columns and labels:
bacterial mutation = conditions: ref Investigator's Brochure (IB) version 5.0; cited from earlier work
monkeys = tested on: monkeys; set-up: method as in Investigator's Brochure (IB) version 5.0; conditions: 28-day repeat dose; ref Investigator's Brochure (IB) version 5.0; cited from earlier work
Ret [1] = biological target: Ret; set-up: method as in Investigator's Brochure (IB) version 5.0; conditions: ref Investigator's Brochure (IB) version 5.0; cited from earlier work
Ret [2] = tested on: Ret; set-up: method as in Investigator's Brochure (IB) version 5.0; conditions: ref Investigator's Brochure (IB) version 5.0; cited from earlier work; remark: listed apart in the source
healthy male subjects [3] = tested on: healthy male subjects; set-up: method as in Protocol BGBC001; conditions: ref Protocol BGBC001; cited from earlier work
Flt4 = tested on: Flt4; set-up: method as in Investigator's Brochure (IB) version 5.0; conditions: ref Investigator's Brochure (IB) version 5.0; cited from earlier work
MD V 4-11 xenograft = tested on: MD V 4-11 xenograft; set-up: method as in Investigator's Brochure (IB) version 5.0; conditions: ref Investigator's Brochure (IB) version 5.0, cited from earlier work
AML cell lines = tested on: AML cell lines; set-up: method as in Investigator's Brochure (IB) version 5.0; conditions: ref Investigator's Brochure (IB) version 5.0, cited from earlier work
Flt1 = tested on: Flt1; set-up: method as in Investigator's Brochure (IB) version 5.0; conditions: ref Investigator's Brochure (IB) version 5.0; cited from earlier work
healthy male subjects [4] = tested on: healthy male subjects; set-up: method as in Protocol BGBC001; conditions: ref Protocol BGBC001, cited from earlier work
[5] = set-up: method as in Protocol BGBC001; conditions: ref Protocol BGBC001, cited from earlier work
human lymphocytes = tested on: human lymphocytes; set-up: method as in Investigator's Brochure (IB) version 5.0; conditions: ref Investigator's Brochure (IB) version 5.0; cited from earlier work
AML/MDS patients [6] = test: ECG QTcF prolongation (Fridericia), graded; format: in vivo
Description: Electrocardiograms were obtained at screening, Cycle 1 Day 1–4, 8, and 15, Cycle 2 Day 1, 8 and 15, at Day 1 of each cycle thereafter, (up to and including Cycle 15), and at Final Study Visit. QT prolongation was assessed using the Fridericia correction QTcF=QT/RR3 [34]. Severity of QTcF prolongation was defined as follows: Grade 1: maximum prolongation 450–480 ms; Grade 2: maximum prolongation 481-500 ms; Grade 3: ≥501 ms on at least two separate ECGs; Grade 4: ≥501 ms or >60 ms change from baseline, with Torsades de pointes, polymorphic ventricular tachycardia or signs/symptoms of serious arrythmia; Grade 5: Death.

Hoxa9/Meis1 leukemia = tested on: Hoxa9/Meis1 leukemia; set-up: method as in Ben-Batalla et al., 2013; conditions: ref Ben-Batalla et al., 2013; cited from earlier work
AML/MDS patients [7] = test: Kaplan-Meier OS, EFS, RFS; format: in vivo, human
Description: Response assessments (peripheral blood and BM) were performed at Cycle 2 Day 1 (pre-dose), Cycle 4 Day 1 (pre-dose) and repeated every 3 cycles thereafter or when clinically indicated. Patients who completed 12 months of study treatment and had not experienced progressive disease (PD) underwent response assessment every 5 cycles until PD was confirmed. Efficacy endpoints were: Objective response rate (ORR), defined as the number of patients with CR, CRi, MLFS, MR or PR divided by the total number of patients in the cohort/group; Disease control rate (DCR), defined as the number of patients with CR, CRi, MLFS, MR, PR or unchanged disease for at least three cycles (considered to have stable disease (SD)) divided by the total number of patients in the cohort/group; Overall survival (OS), defined as (date of death or censoring) – (date of the first study treatment) +1. Censoring date was the last date the patient was known to be alive; Event free survival (EFS), defined as (earliest of date of death, date of progression or date of censoring) – (date of the first study treatment) +1, with event defined as death or progression. Patients who started a new anti-cancer treatment before documented progression were censored at the date of the last assessment prior to start of non-protocol treatment. […] Patients who were alive without documented progression on the last day of contact were censored at the date of the last assessment.
Analyses were performed on response data, AEs, and PK parameters. Subgroup analysis by sex was not performed due to the small number of patients. Statistical analyses were performed using descriptive statistics. The time-to-event variables RFS, EFS, and OS were analyzed using Kaplan-Meier estimates, and median time-to-event was reported alongside its 95% confidence interval (CI). Where relevant, differences between different subgroups for time-to-event endpoints were assessed using a one-tailed log-rank test.

Nc1nc(Nc2ccc3c(c2)CC[C@@H](N2CCCC2)CC3)nn1-c1cc2c(nn1)-c1ccccc1CCC2 [Bemcentinib]
Ames bacterial mutation assay result (bacterial mutation): negative | Target organs (monkeys): liver, reticuloendothelial system and haematopoietic system | Kd (Ret [1]): 73 nM | IC50 (Ret [2]): > 316 nM | Maximum QTcF recorded (severity) (healthy male subjects [3]): Grade I | IC50 (Flt4): > 1000 nM | Reduction in tumor burden (MD V 4-11 xenograft; oral treatment): dose-dependent | Axl and ERK phosphorylation levels (MD V 4-11 xenograft): dose-dependent reduction | Effect when administered with cytarabine (Ara-C) (AML cell lines; preliminary studies): at least additive | Effect of exposure in AML cell lines (AML cell lines; with G1 arrest, reduced phosphorylated axl and ERK): exposure-induced differentiation | IC50 (Flt1): 40 nM | Non-Cardiac Chest Pain, Maximum Grade (CTCAE version 4.0) (healthy male subjects [4]; 50 mg, 4 fasted, 1 fed): One | Orthostatic hypotension, Maximum Grade (CTCAE version 4.0) (healthy male subjects [4]; 100 mg, 4 fasted, 2 fed): One | Abdominal Distension x 2, Maximum Grade (CTCAE version 4.0) (healthy male subjects [4]; 150 mg, 4 fasted, 1 fed): One | Diarrhoea, Maximum Grade (CTCAE version 4.0) (healthy male subjects [4]; 400 mg, 4 fasted, 2 fed): One | Diarrhoea, Maximum Grade (CTCAE version 4.0) (healthy male subjects [4]; 600 mg, 4 fasted): One | Flatulence, Maximum Grade (CTCAE version 4.0) (healthy male subjects [4]; 600 mg, 4 fasted): One | Nausea x 2, Maximum Grade (CTCAE version 4.0) (healthy male subjects [4]; 600 mg, 4 fasted): One | Nausea, Maximum Grade (CTCAE version 4.0) (healthy male subjects [4]; 1000 mg, 4 fasted): One | Diarrhoea, Maximum Grade (CTCAE version 4.0) (healthy male subjects [4]; 1500 mg, 4 fasted): One | Dizziness, Maximum Grade (CTCAE version 4.0) (healthy male subjects [4]; 1500 mg, 4 fasted): One | Headache, Maximum Grade (CTCAE version 4.0) (healthy male subjects [4]; 1500 mg, 4 fasted): One | Nausea, Maximum Grade (CTCAE version 4.0) (healthy male subjects [4]; 1500 mg, 4 fasted): Two | Vomiting, Maximum Grade (CTCAE version 4.0) (healthy male subjects [4]; 1500 mg, 4 fasted): Two | Serious adverse events (SAE) (healthy male subjects [4]; single dose 50-1500 mg): No serious adverse events | t1/2 ([5]; single oral dose, healthy subjects): > 24 h | Estimated increase in exposure with food in some subjects ([5]; whole milk and buttered toast): up to two | In vitro mammalian cell cytogenetic study result (human lymphocytes): negative | Grade 4 or Grade 5 QTcF prolongation events (AML/MDS patients [6]; DE and LDAC cohorts): No patients | No. of QTcF prolonged events: Grade 5 (AML/MDS patients [6]; Dose Escalation Cohort Overall (N=36)): 0 | No. of QTcF prolonged events: Grade 1 (AML/MDS patients [6]; human, in vivo): 8 | No. of QTcF prolonged events: Grade 2 (AML/MDS patients [6]; human, in vivo): 7 | No. of QTcF prolonged events: Grade 3 (AML/MDS patients [6]; human, in vivo): 5 | No. of QTcF prolonged events: Grade 4 (AML/MDS patients [6]; human, in vivo): 0 | Patients with only Grade 1 or Grade 2 QTcF prolongation / patients with QTcF prolongation (AML/MDS patients [6]; human, in vivo): 5/9 | Patients with Grade 3 QTcF prolongation (AML/MDS patients [6]; in vivo): Four | Survival (Hoxa9/Meis1 leukemia): prolong | mEFS (95% CI) (AML/MDS patients [7]; DE 200/100 mg, N=4): 4.4 (0.5-NA) months | mOS (95% CI) (AML/MDS patients [7]; DE 200/100 mg, N=4): 5.9 (4.4-NA) months | mEFS (95% CI) (AML/MDS patients [7]; DE 400/100 mg, N=6): 5.3 (2.6-NA) months | mOS (95% CI) (AML/MDS patients [7]; DE 400/100 mg, N=6): 19 (2.6-NA) months | mEFS (95% CI) (AML/MDS patients [7]; DE 400/200 mg, N=7): 1.6 (0.7-NA) months | mOS (95% CI) (AML/MDS patients [7]; DE 400/200 mg, N=7): 8.6 (0.8-NA) months | mEFS (95% CI) (AML/MDS patients [7]; DE 600/200 mg, N=14): 1.2 (0.7-2.1) months | mOS (95% CI) (AML/MDS patients [7]; DE 600/200 mg, N=14): 2.5 (1.1-NA) months | mOS (95% CI) (AML/MDS patients [7]; DE 900/300 mg, N=5): 6.9 (NA-NA) months | mEFS (95% CI) (AML/MDS patients [7]; DE overall, N=36): 2.1 (1.4-2.8) months | mOS (95% CI) (AML/MDS patients [7]; DE overall, N=36): 5.3 (2.6-9.1) months
